# Measured values taken from ChEMBL document CHEMBL4507285, “Data for DCP probe MRL-SYKi” (2021).
# Experiments:
# [1] = biological target: Mitogen-activated protein kinase kinase kinase 1 (Homo sapiens) (UniProt Q13233); settings: Compound concentration 100.0 nM
# [2] = biological target: Megakaryocyte-associated tyrosine-protein kinase (Homo sapiens) (UniProt P42679); settings: Compound concentration 100.0 nM
# [3] = biological target: Serine/threonine-protein kinase TAO1 (Homo sapiens) (UniProt Q7L7X3); settings: Compound concentration 100.0 nM
# [4] = biological target: Serine/threonine-protein kinase Chk2 (Homo sapiens) (UniProt O96017); settings: Compound concentration 100.0 nM
# [5] = biological target: Mitogen-activated protein kinase kinase kinase 19 (Homo sapiens) (UniProt Q56UN5); settings: Compound concentration 100.0 nM
# [6] = tested on: Proto-oncogene tyrosine-protein kinase receptor Ret (Homo sapiens), P07949 [V804L]; settings: Compound concentration 100.0 nM
# [7] = biological target: Cyclin-dependent kinase 13 (Homo sapiens) (UniProt Q14004); settings: Compound concentration 100.0 nM
# [8] = biological target: Phosphatidylinositol 4,5-bisphosphate 3-kinase catalytic subunit alpha isoform (Homo sapiens) (UniProt P42336); settings: Compound concentration 100.0 nM
# [9] = biological target: Serine/threonine-protein kinase STK11 (Homo sapiens) (UniProt Q15831); settings: Compound concentration 100.0 nM
# [10] = tested on: Tyrosine-protein kinase ABL1 (Homo sapiens), P00519 [H396P]; settings: Compound concentration 100.0 nM
# LIM domain kinase 1 = LIM domain kinase 1 (Homo sapiens, UniProt P53667); settings: Compound concentration 100.0 nM
# [11] = biological target: Serine/threonine-protein kinase Nek4 (Homo sapiens) (UniProt P51957); settings: Compound concentration 100.0 nM
# [12] = tested on: Receptor-type tyrosine-protein kinase FLT3 (Homo sapiens), P36888 [N841I]; settings: Compound concentration 100.0 nM
# [13] = biological target: Mitogen-activated protein kinase kinase kinase 9 (Homo sapiens) (UniProt P80192); settings: Compound concentration 100.0 nM
# [14] = biological target: Leukocyte tyrosine kinase receptor (Homo sapiens) (UniProt P29376); settings: Compound concentration 100.0 nM
# [15] = biological target: Cyclin-dependent kinase 11B (Homo sapiens) (UniProt P21127); settings: Compound concentration 100.0 nM
# [16] = biological target: Mitogen-activated protein kinase 11 (Homo sapiens) (UniProt Q15759); settings: Compound concentration 100.0 nM
# [17] = biological target: Serine/threonine-protein kinase 32C (Homo sapiens) (UniProt Q86UX6); settings: Compound concentration 100.0 nM
# [18] = biological target: Ephrin type-A receptor 3 (Homo sapiens) (UniProt P29320); settings: Compound concentration 100.0 nM
# [19] = tested on: Epidermal growth factor receptor (Homo sapiens), P00533 [UNDEFINED MUTATION]; settings: Compound concentration 100.0 nM
# [20] = biological target: 5-hydroxytryptamine receptor 2C (Homo sapiens) (UniProt P28335); settings: Compound concentration 10.0 uM
# [21] = biological target: Mitogen-activated protein kinase kinase kinase kinase 1 (Homo sapiens) (UniProt Q92918); settings: Compound concentration 100.0 nM
# [22] = biological target: Mitogen-activated protein kinase kinase kinase kinase 5 (Homo sapiens) (UniProt Q9Y4K4); settings: Compound concentration 100.0 nM
# [23] = biological target: 5'-AMP-activated protein kinase catalytic subunit alpha-2 (Homo sapiens) (UniProt P54646); settings: Compound concentration 100.0 nM
# [24] = biological target: Mitogen-activated protein kinase 10 (Homo sapiens) (UniProt P53779); settings: Compound concentration 100.0 nM
# [25] = biological target: High affinity nerve growth factor receptor (Homo sapiens, UniProt P04629); settings: Compound concentration 100.0 nM
# [26] = biological target: Serine/threonine-protein kinase Nek11 (Homo sapiens) (UniProt Q8NG66); settings: Compound concentration 100.0 nM
# [27] = biological target: Aurora kinase C (Homo sapiens) (UniProt Q9UQB9); settings: Compound concentration 100.0 nM
# [28] = biological target: Mitogen-activated protein kinase kinase kinase kinase 4 (Homo sapiens) (UniProt O95819); settings: Compound concentration 100.0 nM
# [29] = biological target: Phosphatidylinositol 3-kinase C2 domain-containing subunit gamma (Homo sapiens) (UniProt O75747); settings: Compound concentration 100.0 nM
# [30] = biological target: Tyrosine-protein kinase Mer (Homo sapiens) (UniProt Q12866); settings: Compound concentration 100.0 nM
# [31] = biological target: Mitogen-activated protein kinase 6 (Homo sapiens) (UniProt Q16659); settings: Compound concentration 100.0 nM
# [32] = biological target: NUAK family SNF1-like kinase 1 (Homo sapiens) (UniProt O60285); settings: Compound concentration 100.0 nM
# [33] = biological target: Serine/threonine-protein kinase Nek5 (Homo sapiens) (UniProt Q6P3R8); settings: Compound concentration 100.0 nM
# [34] = biological target: Activated CDC42 kinase 1 (Homo sapiens) (UniProt Q07912); settings: Compound concentration 100.0 nM
# [35] = biological target: cAMP-dependent protein kinase catalytic subunit beta (Homo sapiens) (UniProt P22694); settings: Compound concentration 100.0 nM
# [36] = biological target: Dual specificity mitogen-activated protein kinase kinase 6 (Homo sapiens) (UniProt P52564); settings: Compound concentration 100.0 nM
# [37] = biological target: Tyrosine-protein kinase CSK (Homo sapiens) (UniProt P41240); settings: Compound concentration 100.0 nM
# [38] = biological target: Atypical kinase COQ8B, mitochondrial (Homo sapiens) (UniProt Q96D53); settings: Compound concentration 100.0 nM
# [39] = tested on: Mast/stem cell growth factor receptor Kit (Homo sapiens), P10721 [D816V]; settings: Compound concentration 100.0 nM
# [40] = biological target: STE20-like serine/threonine-protein kinase (Homo sapiens) (UniProt Q9H2G2); settings: Compound concentration 100.0 nM
# [41] = biological target: Rho-associated protein kinase 1 (Homo sapiens) (UniProt Q13464); settings: Compound concentration 100.0 nM
# [42] = biological target: Cyclin-dependent kinase 4 (Homo sapiens) (UniProt P11802); settings: Compound concentration 100.0 nM
# [43] = biological target: Histamine H4 receptor (Homo sapiens) (UniProt Q9H3N8); settings: Compound concentration 10.0 uM
# [44] = biological target: Serine/threonine-protein kinase 24 (Homo sapiens) (UniProt Q9Y6E0); settings: Compound concentration 100.0 nM
# Chain of STE20-like serine/threonine-protein kinase (Homo sapiens) (Q9H2G2 whole entry, looked up): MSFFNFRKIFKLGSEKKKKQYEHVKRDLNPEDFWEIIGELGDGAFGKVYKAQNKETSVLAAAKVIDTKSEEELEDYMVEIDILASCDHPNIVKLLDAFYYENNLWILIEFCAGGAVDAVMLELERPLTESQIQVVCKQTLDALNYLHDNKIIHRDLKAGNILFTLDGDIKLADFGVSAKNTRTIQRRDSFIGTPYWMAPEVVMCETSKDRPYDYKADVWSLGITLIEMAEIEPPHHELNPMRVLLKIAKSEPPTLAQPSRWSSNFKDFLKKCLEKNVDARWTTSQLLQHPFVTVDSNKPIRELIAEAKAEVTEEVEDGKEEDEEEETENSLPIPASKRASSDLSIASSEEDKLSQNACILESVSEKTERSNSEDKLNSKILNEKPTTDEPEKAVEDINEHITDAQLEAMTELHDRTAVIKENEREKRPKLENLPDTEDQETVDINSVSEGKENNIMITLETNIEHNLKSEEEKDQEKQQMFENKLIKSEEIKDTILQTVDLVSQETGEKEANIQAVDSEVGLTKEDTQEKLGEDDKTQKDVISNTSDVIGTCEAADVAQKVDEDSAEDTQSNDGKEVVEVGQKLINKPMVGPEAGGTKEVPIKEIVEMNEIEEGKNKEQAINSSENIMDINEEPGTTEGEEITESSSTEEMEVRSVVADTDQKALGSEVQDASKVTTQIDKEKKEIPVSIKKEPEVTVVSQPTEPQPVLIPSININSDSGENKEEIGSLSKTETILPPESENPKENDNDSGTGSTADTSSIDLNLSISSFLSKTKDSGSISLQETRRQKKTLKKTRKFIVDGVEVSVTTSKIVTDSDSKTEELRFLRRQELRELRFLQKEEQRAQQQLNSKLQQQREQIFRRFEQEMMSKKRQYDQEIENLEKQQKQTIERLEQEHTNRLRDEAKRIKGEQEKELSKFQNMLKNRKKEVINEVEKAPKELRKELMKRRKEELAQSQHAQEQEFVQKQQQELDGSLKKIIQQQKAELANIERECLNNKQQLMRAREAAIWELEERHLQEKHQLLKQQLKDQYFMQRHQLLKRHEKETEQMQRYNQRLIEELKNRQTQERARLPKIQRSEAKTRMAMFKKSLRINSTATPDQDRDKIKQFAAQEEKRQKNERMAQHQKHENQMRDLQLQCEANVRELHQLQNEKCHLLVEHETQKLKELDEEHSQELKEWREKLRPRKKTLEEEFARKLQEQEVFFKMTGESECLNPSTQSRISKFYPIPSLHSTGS
# Chain of Mast/stem cell growth factor receptor Kit (Homo sapiens), P10721 [D816V] (P10721 whole entry D816V): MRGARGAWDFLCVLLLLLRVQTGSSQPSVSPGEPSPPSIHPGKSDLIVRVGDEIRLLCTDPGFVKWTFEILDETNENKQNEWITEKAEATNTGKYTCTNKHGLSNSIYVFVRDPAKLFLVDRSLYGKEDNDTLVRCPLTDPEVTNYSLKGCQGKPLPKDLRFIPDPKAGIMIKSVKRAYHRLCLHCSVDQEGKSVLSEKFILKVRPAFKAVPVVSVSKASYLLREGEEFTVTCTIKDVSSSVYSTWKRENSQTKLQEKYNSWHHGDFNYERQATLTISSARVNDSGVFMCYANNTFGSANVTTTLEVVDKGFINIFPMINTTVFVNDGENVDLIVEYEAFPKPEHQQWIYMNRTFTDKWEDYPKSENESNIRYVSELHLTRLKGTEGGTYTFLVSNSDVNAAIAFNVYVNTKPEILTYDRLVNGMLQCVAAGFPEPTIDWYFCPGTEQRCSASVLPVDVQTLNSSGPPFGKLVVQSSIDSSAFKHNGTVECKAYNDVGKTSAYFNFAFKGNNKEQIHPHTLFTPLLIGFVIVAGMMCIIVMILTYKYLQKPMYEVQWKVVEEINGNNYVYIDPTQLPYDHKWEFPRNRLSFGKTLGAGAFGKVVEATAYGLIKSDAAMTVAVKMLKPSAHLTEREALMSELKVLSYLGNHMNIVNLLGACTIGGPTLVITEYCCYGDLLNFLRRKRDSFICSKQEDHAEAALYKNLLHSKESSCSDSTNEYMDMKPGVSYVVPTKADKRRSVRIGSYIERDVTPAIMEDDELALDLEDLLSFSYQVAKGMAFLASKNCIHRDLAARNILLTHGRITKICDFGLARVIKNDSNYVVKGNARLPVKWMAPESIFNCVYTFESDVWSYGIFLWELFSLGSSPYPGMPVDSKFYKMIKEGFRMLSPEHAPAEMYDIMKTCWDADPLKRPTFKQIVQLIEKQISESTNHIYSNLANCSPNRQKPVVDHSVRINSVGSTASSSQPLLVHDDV
# Chain of High affinity nerve growth factor receptor (P04629 33-796 limits assumed): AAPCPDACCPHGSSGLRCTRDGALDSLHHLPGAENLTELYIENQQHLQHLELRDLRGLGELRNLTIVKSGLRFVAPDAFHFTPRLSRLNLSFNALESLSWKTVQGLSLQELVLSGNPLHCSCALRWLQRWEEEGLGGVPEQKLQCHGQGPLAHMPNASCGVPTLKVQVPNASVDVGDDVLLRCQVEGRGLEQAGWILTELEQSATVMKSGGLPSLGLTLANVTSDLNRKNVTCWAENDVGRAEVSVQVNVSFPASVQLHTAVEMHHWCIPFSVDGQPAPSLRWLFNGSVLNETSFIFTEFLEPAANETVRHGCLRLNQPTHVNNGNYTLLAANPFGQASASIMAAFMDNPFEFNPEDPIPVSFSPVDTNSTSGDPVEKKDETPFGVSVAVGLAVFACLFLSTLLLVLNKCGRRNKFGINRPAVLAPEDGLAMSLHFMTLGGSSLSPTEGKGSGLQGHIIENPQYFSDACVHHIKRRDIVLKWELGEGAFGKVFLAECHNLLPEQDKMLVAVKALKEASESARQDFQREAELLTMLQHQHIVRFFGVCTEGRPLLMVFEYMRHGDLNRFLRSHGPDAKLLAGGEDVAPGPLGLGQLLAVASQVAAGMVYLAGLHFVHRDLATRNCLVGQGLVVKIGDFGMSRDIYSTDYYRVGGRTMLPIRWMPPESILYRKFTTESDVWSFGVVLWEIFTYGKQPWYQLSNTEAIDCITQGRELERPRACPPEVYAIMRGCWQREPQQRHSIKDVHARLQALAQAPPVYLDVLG
# Chain of Megakaryocyte-associated tyrosine-protein kinase (Homo sapiens) (P42679 whole entry): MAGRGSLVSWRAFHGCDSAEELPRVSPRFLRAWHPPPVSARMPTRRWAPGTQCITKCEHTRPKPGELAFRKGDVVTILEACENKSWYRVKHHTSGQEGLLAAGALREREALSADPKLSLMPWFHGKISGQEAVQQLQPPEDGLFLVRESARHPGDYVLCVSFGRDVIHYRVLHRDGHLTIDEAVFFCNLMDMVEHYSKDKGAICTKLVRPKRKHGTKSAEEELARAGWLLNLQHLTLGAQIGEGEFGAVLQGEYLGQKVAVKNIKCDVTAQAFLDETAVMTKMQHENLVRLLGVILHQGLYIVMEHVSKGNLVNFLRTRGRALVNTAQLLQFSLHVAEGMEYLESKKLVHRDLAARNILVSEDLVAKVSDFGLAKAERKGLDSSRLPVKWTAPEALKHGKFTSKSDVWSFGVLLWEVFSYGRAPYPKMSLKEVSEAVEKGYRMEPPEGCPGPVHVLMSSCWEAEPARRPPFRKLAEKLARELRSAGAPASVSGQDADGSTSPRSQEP
# Chain of Mitogen-activated protein kinase kinase kinase kinase 4 (Homo sapiens) (O95819 2-1239 limits assumed): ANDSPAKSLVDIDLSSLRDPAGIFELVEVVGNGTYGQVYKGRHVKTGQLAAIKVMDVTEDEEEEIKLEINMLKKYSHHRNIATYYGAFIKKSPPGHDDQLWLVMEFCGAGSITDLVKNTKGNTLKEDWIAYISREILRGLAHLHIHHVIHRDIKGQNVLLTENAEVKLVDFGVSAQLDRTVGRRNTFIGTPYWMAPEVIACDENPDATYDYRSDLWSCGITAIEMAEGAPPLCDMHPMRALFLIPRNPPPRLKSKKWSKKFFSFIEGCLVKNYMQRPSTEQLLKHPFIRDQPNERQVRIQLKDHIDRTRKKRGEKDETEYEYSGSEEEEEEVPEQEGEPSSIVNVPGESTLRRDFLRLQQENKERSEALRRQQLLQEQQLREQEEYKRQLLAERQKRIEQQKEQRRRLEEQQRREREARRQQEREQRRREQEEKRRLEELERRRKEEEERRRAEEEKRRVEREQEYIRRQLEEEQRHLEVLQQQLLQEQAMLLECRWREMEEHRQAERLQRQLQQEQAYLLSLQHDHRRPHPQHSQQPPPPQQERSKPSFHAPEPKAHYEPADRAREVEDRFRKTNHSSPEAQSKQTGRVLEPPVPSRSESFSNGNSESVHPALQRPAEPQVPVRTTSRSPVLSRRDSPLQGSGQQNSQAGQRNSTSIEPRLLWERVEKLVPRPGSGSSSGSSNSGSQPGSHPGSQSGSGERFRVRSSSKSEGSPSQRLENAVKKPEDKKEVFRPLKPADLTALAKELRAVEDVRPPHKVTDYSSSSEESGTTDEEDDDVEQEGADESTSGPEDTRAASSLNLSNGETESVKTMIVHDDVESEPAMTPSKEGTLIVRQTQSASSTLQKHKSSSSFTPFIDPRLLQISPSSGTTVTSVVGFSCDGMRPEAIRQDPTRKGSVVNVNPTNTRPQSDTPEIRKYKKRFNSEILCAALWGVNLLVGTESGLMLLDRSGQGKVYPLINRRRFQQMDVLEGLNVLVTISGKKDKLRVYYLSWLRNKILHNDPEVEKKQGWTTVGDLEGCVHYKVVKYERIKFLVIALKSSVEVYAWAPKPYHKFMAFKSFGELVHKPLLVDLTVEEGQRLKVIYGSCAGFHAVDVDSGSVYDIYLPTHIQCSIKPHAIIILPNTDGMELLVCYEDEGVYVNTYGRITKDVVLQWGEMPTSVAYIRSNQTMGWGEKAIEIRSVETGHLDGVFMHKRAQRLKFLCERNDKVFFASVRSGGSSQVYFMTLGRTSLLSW
# Chain of Dual specificity mitogen-activated protein kinase kinase 6 (Homo sapiens) (P52564 whole entry): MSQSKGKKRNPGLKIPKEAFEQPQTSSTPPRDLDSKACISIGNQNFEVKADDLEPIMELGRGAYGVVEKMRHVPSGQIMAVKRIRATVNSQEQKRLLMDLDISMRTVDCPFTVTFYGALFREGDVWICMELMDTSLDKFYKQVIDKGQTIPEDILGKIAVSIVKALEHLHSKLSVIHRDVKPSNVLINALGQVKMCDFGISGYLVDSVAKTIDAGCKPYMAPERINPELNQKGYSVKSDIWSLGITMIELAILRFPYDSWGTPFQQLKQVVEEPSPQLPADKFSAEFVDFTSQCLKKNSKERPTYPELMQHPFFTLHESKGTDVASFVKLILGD
smiles,measurement,setting,value
Cc1ccc(-c2cnc([C@@]3(O)CC[C@H](C(=O)O)C(C)(C)C3)s2)cc1Nc1cccc(C(F)(F)F)n1 [MRL-SYKi-NC],residual activity,[1],96%
same,residual activity,[2],74.6%
same,residual activity,[3],89.5%
same,residual activity,[4],100%
same,residual activity,[5],100%
same,residual activity,[6],100%
same,residual activity,[7],45.7%
same,residual activity,[8],86.9%
same,residual activity,[9],70.8%
same,residual activity,[10],95.4%
same,residual activity,LIM domain kinase 1,100%
same,residual activity,[11],84%
same,residual activity,[12],89.3%
same,residual activity,[13],100%
same,residual activity,[14],75.8%
same,residual activity,[15],95.4%
same,residual activity,[16],98.7%
same,residual activity,[17],100%
same,residual activity,[18],93.7%
same,residual activity,[19],92.1%
same,inhibition,[20],4.21%
same,residual activity,[21],100%
same,residual activity,[22],95.4%
same,residual activity,[23],94.7%
same,residual activity,[24],37.5%
same,residual activity,[25],64.5%
same,residual activity,[26],93%
same,residual activity,[27],100%
same,residual activity,[28],100%
same,residual activity,[29],59.6%
same,residual activity,[30],100%
same,residual activity,[31],100%
same,residual activity,[32],100%
same,residual activity,[33],100%
same,residual activity,[34],100%
same,residual activity,[35],71.5%
same,residual activity,[36],89.3%
same,residual activity,[37],82.3%
same,residual activity,[38],98.7%
same,residual activity,[39],100%
same,residual activity,[40],93.6%
same,residual activity,[41],100%
same,residual activity,[42],100%
same,inhibition,[43],8.06%
same,residual activity,[44],100%
Cc1cc(Nc2nccc(C)n2)cc(-c2cnc([C@@]3(O)CC[C@H](C(=O)O)C(C)(C)C3)s2)c1 [MRL-SYKi],residual activity,[1],100%
same,residual activity,[2],100%
same,residual activity,[3],100%
same,residual activity,[4],100%
same,residual activity,[5],100%
same,residual activity,[6],87%
same,residual activity,[7],89.5%
same,residual activity,[8],100%
same,residual activity,[9],100%
same,residual activity,[10],53.9%
same,residual activity,LIM domain kinase 1,93.1%
same,residual activity,[11],96.6%
same,residual activity,[12],100%
same,residual activity,[13],90.4%
same,residual activity,[14],100%
same,residual activity,[15],93.3%
same,residual activity,[16],100%
same,residual activity,[17],85.9%
same,residual activity,[18],100%
same,residual activity,[19],100%
same,inhibition,[20],3.02%
same,residual activity,[21],100%
same,residual activity,[22],95.4%
same,residual activity,[23],100%
same,residual activity,[24],67.7%
same,residual activity,[25],30.2%
same,residual activity,[26],61.2%
same,residual activity,[27],100%
same,residual activity,[28],100%
same,residual activity,[29],95.9%
same,residual activity,[30],81.5%
same,residual activity,[31],97.9%
same,residual activity,[32],100%
same,residual activity,[33],74.2%
same,residual activity,[34],100%
same,residual activity,[35],100%
same,residual activity,[36],100%
same,residual activity,[37],100%
same,residual activity,[38],99.4%
same,residual activity,[39],100%
same,residual activity,[40],96.4%
same,residual activity,[41],70.7%
same,residual activity,[42],85.4%
same,inhibition,[43],7.61%
same,residual activity,[44],83.5%
